Laboratory results taken from article PMC10264579 (Frontiers in Pharmacology, 2023).

Assay: In vitro skin permeation study in Franz diffusion cells
Format: in vitro ADME, human
Conditions: all formulations
Description: The steady-state flux was estimated from the slope of the linear portion of the plot of cumulative mass in the acceptor phase over time.

CC(C(=O)O)c1cccc(C(=O)c2ccccc2)c1 (stereo not shown) [KET, ketoprofen]
lag time, KET: below 0
